# Experimental data published in PubChem BioAssay AID2060599 (Molecular Pharmacology Branch, DTP, NCI, 2025).
# Tested on: 817829-284-R-J1-PDC complex spheroids, viability
# Experiment: Anticancer human tumor 817829-284-R-J1-PDC patient-derived colon adenocarcinoma cell line growth inhibition [CLK]
# Conditions: for IC50: curve of first compound; for viability, T/C: stronger effect = lower value
# Method in brief: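 Patient-derived tumor cells grown as complex spheroids with HUVEC endothelial cells and mesenchymal stem cells, treated with drug combinations. Concentrations descend in half-log steps from near clinical Cmax, or from 10 microM if Cmax unknown.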
# [1] = second compound 0.0316 µM, first compound 0.0316 µM
# [2] = second compound 0.0316 µM, first compound 0.1 µM
# [3] = second compound 0.0316 µM, first compound 0.316 µM
# [4] = second compound 0.0316 µM, first compound 1 µM
# [5] = second compound 0.0316 µM, first compound 3.16 µM
# [6] = second compound 0.0316 µM, first compound 10 µM
# [7] = second compound 0.1 µM, first compound 0.0316 µM
# [8] = second compound 0.1 µM, first compound 0.1 µM
# [9] = second compound 0.1 µM, first compound 0.316 µM
# [10] = second compound 0.1 µM, first compound 1 µM
# [11] = second compound 0.1 µM, first compound 3.16 µM
# [12] = second compound 0.1 µM, first compound 10 µM
# [13] = second compound 0.316 µM, first compound 0.0316 µM
# [14] = second compound 0.316 µM, first compound 0.1 µM
# [15] = second compound 0.316 µM, first compound 0.316 µM
# [16] = second compound 0.316 µM, first compound 1 µM
# [17] = second compound 0.316 µM, first compound 3.16 µM
# [18] = second compound 0.316 µM, first compound 10 µM
# [19] = second compound 1 µM, first compound 0.0316 µM
# [20] = second compound 1 µM, first compound 0.1 µM
# [21] = second compound 1 µM, first compound 0.316 µM
# [22] = second compound 1 µM, first compound 1 µM
# [23] = second compound 1 µM, first compound 3.16 µM
# [24] = second compound 1 µM, first compound 10 µM
# [25] = second compound 3.16 µM, first compound 0.0316 µM
# [26] = second compound 3.16 µM, first compound 0.1 µM
# [27] = second compound 3.16 µM, first compound 0.316 µM
# [28] = second compound 3.16 µM, first compound 1 µM
# [29] = second compound 3.16 µM, first compound 3.16 µM
# [30] = second compound 3.16 µM, first compound 10 µM
# [31] = second compound 10 µM, first compound 0.0316 µM
# [32] = second compound 10 µM, first compound 0.1 µM
# [33] = second compound 10 µM, first compound 0.316 µM
# [34] = second compound 10 µM, first compound 1 µM
# [35] = second compound 10 µM, first compound 3.16 µM
# [36] = second compound 10 µM, first compound 10 µM
# 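Also: spheroids exposed to the agents for seven days before readout.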
smiles,measurement,setting,value
CC(C)CC(NC(=O)C(Cc1ccccc1)NC(=O)c1cnccn1)B(O)O (stereo unspecified) + CN1CCN(c2cc(C(=O)Nc3cc4cc(-c5cnn(C)c5)ccc4cn3)ccn2)CC1,IC50,second compound 0.0316 µM,1.09 nM
same,IC50,second compound 0.1 µM,< 0.949 nM
same,IC50,second compound 0.316 µM,< 0.949 nM
same,IC50,second compound 1 µM,< 0.949 nM
same,IC50,second compound 3.16 µM,< 0.949 nM
same,IC50,second compound 10 µM,< 0.949 nM
same,"viability, T/C","second compound 0.0316 µM, first compound 0.000949 µM",56.9%
same,"viability, T/C","second compound 0.0316 µM, first compound 0.003 µM",0.32%
same,"viability, T/C","second compound 0.0316 µM, first compound 0.00949 µM",0.15%
same,"viability, T/C","second compound 0.0316 µM, first compound 0.03 µM",0.1%
same,"viability, T/C","second compound 0.0316 µM, first compound 0.0949 µM",0.08%
same,"viability, T/C","second compound 0.0316 µM, first compound 0.3 µM",0.06%
same,"viability, T/C","second compound 0.1 µM, first compound 0.000949 µM",8.37%
same,"viability, T/C","second compound 0.1 µM, first compound 0.003 µM",0.1%
same,"viability, T/C","second compound 0.1 µM, first compound 0.00949 µM",0.11%
same,"viability, T/C","second compound 0.1 µM, first compound 0.03 µM",0.08%
same,"viability, T/C","second compound 0.1 µM, first compound 0.0949 µM",0.06%
same,"viability, T/C","second compound 0.1 µM, first compound 0.3 µM",0.06%
same,"viability, T/C","second compound 0.316 µM, first compound 0.000949 µM",0.43%
same,"viability, T/C","second compound 0.316 µM, first compound 0.003 µM",0.07%
same,"viability, T/C","second compound 0.316 µM, first compound 0.00949 µM",0.09%
same,"viability, T/C","second compound 0.316 µM, first compound 0.03 µM",0.04%
same,"viability, T/C","second compound 0.316 µM, first compound 0.0949 µM",0.05%
same,"viability, T/C","second compound 0.316 µM, first compound 0.3 µM",0.05%
same,"viability, T/C","second compound 1 µM, first compound 0.000949 µM",0.08%
same,"viability, T/C","second compound 1 µM, first compound 0.003 µM",0.06%
same,"viability, T/C","second compound 1 µM, first compound 0.00949 µM",0.05%
same,"viability, T/C","second compound 1 µM, first compound 0.03 µM",0.04%
same,"viability, T/C","second compound 1 µM, first compound 0.0949 µM",0.05%
same,"viability, T/C","second compound 1 µM, first compound 0.3 µM",0.05%
same,"viability, T/C","second compound 3.16 µM, first compound 0.000949 µM",0.07%
same,"viability, T/C","second compound 3.16 µM, first compound 0.003 µM",0.06%
same,"viability, T/C","second compound 3.16 µM, first compound 0.00949 µM",0.06%
same,"viability, T/C","second compound 3.16 µM, first compound 0.03 µM",0.04%
same,"viability, T/C","second compound 3.16 µM, first compound 0.0949 µM",0.07%
same,"viability, T/C","second compound 3.16 µM, first compound 0.3 µM",0.07%
same,"viability, T/C","second compound 10 µM, first compound 0.000949 µM",0.03%
same,"viability, T/C","second compound 10 µM, first compound 0.003 µM",0.06%
same,"viability, T/C","second compound 10 µM, first compound 0.00949 µM",0.09%
same,"viability, T/C","second compound 10 µM, first compound 0.03 µM",0.09%
same,"viability, T/C","second compound 10 µM, first compound 0.0949 µM",0.15%
same,"viability, T/C","second compound 10 µM, first compound 0.3 µM",0.11%
CC1(C)CCC(CN2CCN(c3ccc(C(=O)NS(=O)(=O)c4ccc(NCC5CCOCC5)c([N+](=O)[O-])c4)c(Oc4cnc5[nH]ccc5c4)c3)CC2)=C(c2ccc(Cl)cc2)C1 + CN1CCN(c2cc(C(=O)Nc3cc4cc(-c5cnn(C)c5)ccc4cn3)ccn2)CC1,IC50,second compound 0.0316 µM,4030 nM
same,IC50,second compound 0.1 µM,< 31.6 nM
same,IC50,second compound 0.316 µM,< 31.6 nM
same,IC50,second compound 1 µM,< 31.6 nM
same,IC50,second compound 3.16 µM,< 31.6 nM
same,IC50,second compound 10 µM,< 31.6 nM
same,"viability, T/C",[1],92.8%
same,"viability, T/C",[2],64.9%
same,"viability, T/C",[3],46.8%
same,"viability, T/C",[4],80.8%
same,"viability, T/C",[5],63.2%
same,"viability, T/C",[6],1.02%
same,"viability, T/C",[7],18%
same,"viability, T/C",[8],19.6%
same,"viability, T/C",[9],16.1%
same,"viability, T/C",[10],18.4%
same,"viability, T/C",[11],20%
same,"viability, T/C",[12],0.96%
same,"viability, T/C",[13],1.84%
same,"viability, T/C",[14],1.97%
same,"viability, T/C",[15],1.65%
same,"viability, T/C",[16],2.48%
same,"viability, T/C",[17],1.41%
same,"viability, T/C",[18],0.06%
same,"viability, T/C",[19],0.11%
same,"viability, T/C",[20],0.09%
same,"viability, T/C",[21],0.08%
same,"viability, T/C",[22],0.09%
same,"viability, T/C",[23],0.09%
same,"viability, T/C",[24],0.06%
same,"viability, T/C",[25],0.12%
same,"viability, T/C",[26],0.12%
same,"viability, T/C",[27],0.12%
same,"viability, T/C",[28],0.11%
same,"viability, T/C",[29],0.13%
same,"viability, T/C",[30],0.07%
same,"viability, T/C",[31],0.06%
same,"viability, T/C",[32],0.07%
same,"viability, T/C",[33],0.09%
same,"viability, T/C",[34],0.09%
same,"viability, T/C",[35],0.17%
same,"viability, T/C",[36],0.1%
CC1COCCN1c1cc(C2(S(C)(=N)=O)CC2)nc(-c2ccnc3[nH]ccc23)n1 (stereo unspecified) + CN1CCN(c2cc(C(=O)Nc3cc4cc(-c5cnn(C)c5)ccc4cn3)ccn2)CC1,IC50,second compound 0.0316 µM,84.3 nM
same,IC50,second compound 0.1 µM,< 31.6 nM
same,IC50,second compound 0.316 µM,< 31.6 nM
same,IC50,second compound 1 µM,< 31.6 nM
same,IC50,second compound 3.16 µM,< 31.6 nM
same,IC50,second compound 10 µM,< 31.6 nM
same,"viability, T/C",[1],57.2%
same,"viability, T/C",[2],48.3%
same,"viability, T/C",[3],34.6%
same,"viability, T/C",[4],20.3%
same,"viability, T/C",[5],6.12%
same,"viability, T/C",[6],3.77%
same,"viability, T/C",[7],14.8%
same,"viability, T/C",[8],15.1%
same,"viability, T/C",[9],11.9%
same,"viability, T/C",[10],8.16%
same,"viability, T/C",[11],4.67%
same,"viability, T/C",[12],3.28%
same,"viability, T/C",[13],1.94%
same,"viability, T/C",[14],2.26%
same,"viability, T/C",[15],1.9%
same,"viability, T/C",[16],2.08%
same,"viability, T/C",[17],1.38%
same,"viability, T/C",[18],0.6%
same,"viability, T/C",[19],0.08%
same,"viability, T/C",[20],0.15%
same,"viability, T/C",[21],0.11%
same,"viability, T/C",[22],0.08%
same,"viability, T/C",[23],0.07%
same,"viability, T/C",[24],0.08%
same,"viability, T/C",[25],0.53%
same,"viability, T/C",[26],0.17%
same,"viability, T/C",[27],0.15%
same,"viability, T/C",[28],0.14%
same,"viability, T/C",[29],0.14%
same,"viability, T/C",[30],0.1%
same,"viability, T/C",[31],0.09%
same,"viability, T/C",[32],0.12%
same,"viability, T/C",[33],0.13%
same,"viability, T/C",[34],0.13%
same,"viability, T/C",[35],0.15%
same,"viability, T/C",[36],0.14%
